Assay type in all cases: cell-based
For one assay, the system named is HepG2 cells. Put plainly: Cholesterol synthesis in HepG2 cells ([14C] acetate incorporation). As to conditions: for IC50: positive controls, HepG2 cells. The protocol: To confirm the lipid-cholesterol improvement effect of the plant extracts, an appropriate number of HepG2 cells was seeded and cultured using a IMEM culture medium (containing 10% of FCS, 4.5 g/L of glucose, 4 mM glutamine, 10 μg/ml of insulin, 50 μg/ml of penicillin, 50 μg/ml of streptomycin, and 1% of non-essential amino acids). At this time, the culture medium was replaced every 2 days, and the cells were used for the experiment on the 12th day after seeding.
1 ml of a labeled acetate solution ([^14C] sodium acetate) was added to the cells, and the cells were incubated in a CO2 incubator. After 1 hour of incubation, the culture medium was discarded, the cells were washed with ice-cold PBS, 2 M NaOH was added to detach the cells, and the cells were incubated at 95° C. for 1 hour to induce saponification of lipids. Then, [^3H] cholesterol (about 20,000 dpm/sample) was added as a recovery marker, and lipids were extracted with a chloroform-methanol (2:1 (v/v)) solution. Then, after separating lipides through thin layer chromatohrapy (TLC), a band corresponding to free cholesterol was scraped and placed in a scintillation vial for measurement. The results for the above experiment were expressed as the amount of acetate incorporated per protein (acetate (nmole) incorporated/protein (mg)).
In this experimental example, it was confirmed whether the plant extracts inhibit cholesterol synthesis. As a result of the experiment, the amount of cholesterol was quantified. A decrease in cholesterol level means that a cholesterol improvement effect is obtained.
The effect of the test substance on the intracellular cholesterol content was expressed as a relative ratio when the control group (treated with dimethyl sulfoxide (DMSO) only) was 100% or was expressed as the amount incorporated acetate ([^14C]-acetate (nmole) incorporated/4 h/well). As the measured value increases, the amount of synthesized cholesterol increases. That is, a decrease in cholesterol synthesis indicates improvement in cholesterol.

The next assay concerns U266 cells. Put plainly: IgE secretion measurement, ELISA. The protocol:
To confirm the anti-allergic effect of the plant extracts, the secretion amount of immunoglobulin E was measured. First, U266 cells were treated with a test substance while culturing the U266 cells in an RPMI1640 culture medium containing 10% FBS for 3 days. After 3 days of treatment with the test substance, the cell culture medium was harvested. IgE capture antibody was added to the plate and left for 1 day. The plate was blocked with 2% BSA. The collected culture medium was added to the plate and mixed by shaking. IgE detection antibody was added to the plate and mixed by shaking. Streptavidin-HRP was added to the plate, and after blocking light, the mixture was shaken. A substrate was added to the plate, and after blocking light, the mixture was mixed by shaking until the color of the mixture changed to blue. After confirming that the color had changed, a 2 N sulfuric acid solution was added to the plate and mixed by shaking until the color changed to yellow. After measuring the absorbance at 450 nm and 570 nm, results were analyzed by subtracting the absorbance at 570 nm from the absorbance at 450 nm. At this time, as a positive control, 1 μM dexamethasone was used, and as a result, an inhibitory effect of 32% was observed. As a result of treatment with 0.1 μM hydrocortisone, an inhibitory effect of 35% was observed.
As a result of the experiment, the amount of IgE was quantified. As the level of IgE decreases, the anti-allergic effect increases.

The subject of the next assay is 3T3-L1 fibroblasts. Kind of assay: Glycerol content in culture medium of 3T3-L1 fibroblasts (lipolysis). The note with it: positive control. How it is done: To confirm the anti-obesity effect of the plant extracts, the content of glycerol in the culture medium of 3T3-L1 fibroblasts was measured.
First, 3T3-L1 fibroblasts were cultured using a DMEM culture medium (proliferation culture medium) containing 10% bovine serum to an appropriate cell number on a plate. Then, using a DMEM culture medium (differentiation culture medium) containing 10% FBS, the cells were cultured until the plate was filled with the cells, and then were further cultured for 2 to 3 days. The existing culture medium was replaced with a culture medium to induce cell differentiation, which contains insulin (5 μg/mL), dexamethasone (0.25 μM), and 3-isobutyl-1-methylxanthine (0.5 mM), and was followed by incubation for 2 to 3 days. Afterwards, the culture medium was replaced with a medium containing only insulin and the cells were incubated for 2 to 3 days, and then the culture medium was replaced again with a DMEM culture medium containing 10% FBS and the cells were again incubated for 6 to 8 days (incubated until a point at which fat accumulation is observed in the cells). The anti-obesity substance was added before or after differentiation induction according to the purpose of the experiment. The cell culture medium was centrifuged at 10,000 rpm for 10 minutes, and the supernatant was obtained using a Pasteur pipette. The obtained supernatant was transferred to a plate and heated at 65° C. for 8 min to inactivate enzymes released from the cells. Next, a glycerol probe was dissolved in 220 μl of DMSO, and a glycerol enzyme mixture (Cayman Chemical, USA; Item No. 10010962) was dissolved in an assay buffer. These solutions were shielded from light and stored at −20° C. until experiment was performed. A 1 mM glycerol standard solution was prepared by diluting 10 μl of a glycerol standard solution with 990 μl of an analysis buffer. Then, the 1 mM glycerol standard solution was thoroughly mixed, 0, 2, 4, 6, 8, and 10 μl of the 1 Mm glycerol standard solution were respectively added to each well, and the analysis buffer was added to the each well to adjust the total volume to 50 μl. 50 μl of the sample (culture medium in which enzymes are inactivated) was added to each well. A reaction mixture containing 46 μl of the analysis buffer, 2 μl of the glycerol probe, and 2 μl of the glycerol enzyme mixture was prepared. 50 μl of the reaction mixture was added to each well containing the standard solution and the sample and was thoroughly mixed. Then, each well was shielded from light and left at room temperature for 30 minutes. Then, absorbance was measured at 570 nm.
As a result of the experiment, the amount of glycerol was quantified. Glycerol is a by-product of lipolysis. Accordingly, as the level of glycerol increases, an anti-obesity effect increases.
When lipolysis is enhanced by the test substance, the amount of triglycerides accumulated in adipocytes decreases and the amount of glycerol released increases. Accordingly, an increase in the amount of released glycerol means an increase in decomposition of triglycerides. Through this experiment, it can be confirmed that the test substance has an anti-obesity effect.

The test system of a further assay is C2C12 cells. Put plainly: Glucose uptake measurement (2-NBDG method, FACS). The note with it: positive control. The protocol:
To confirm the blood glucose control effect of the plant extracts, the glucose uptake capacity of cells treated with the plant extracts was measured. First, C2C12 cells were seeded on a 96-well culture plate at a cell density of 1×10^4 cells/well. When a state of subconfluence was reached, which is within 24 hours, the experiment was started.
When saturated, the culture medium was removed, and 100 μl of a fresh medium containing 10 μM 2-NBDG or 100 μl of a fresh medium not containing 10 μM 2-NBDG (control) was added to each well. At this time, a test substance to be evaluated was included in the culture medium. That is, the cells were treated with the test substance by changing the culture medium. After treatment for 1 hour, wells were washed 2 times with pre-cold PBS. Then, cells in each well were collected and resuspended in 200 μl of a pre-cold medium, and the nuclei of the cells were stained with 1 μg/mL of propidium iodine (PI).
Measurement was performed with FACS for about 20 seconds. Event results of about 2,000 single cells were collected, and statistical analysis was performed on the event results.
In this experiment, it was determined whether the plant extracts promote intracellular glucose uptake. As a result of the experiment, the amount of glucose uptake into cells was quantified. That is, an increase in glucose uptake into cells means that the blood glucose control effect is improved.
As the value of measured fluorescence intensity increases, the glucose absorption rate increases. An increase in glucose absorption indicates a decrease in blood glucose levels.

A further assay has as its system HUVEC cells. Put plainly: Recovery of reduction in nitric oxide induced by oxLDL (Griess reagent). The note with it: positive control. The protocol: To confirm the blood circulation improvement effect of the plant extracts, recovery of reduction in nitric oxide induced by oxidized low density lipoprotein (oxLDL) was measured. First, HUVEC cells were suspended in a Ham's F-12K (Kaighn's modification) culture medium, and the suspended cells were aliquoted into a culture plate. Then, plant extracts (samples) diluted at various concentrations were added to the culture plate containing the cells. At this time, […]. The sample-treated cells were placed in a 5% CO2 incubator set at 37° C. and cultured for 24 to 48 hours, and then the supernatant was taken and used as an analysis sample.
To analyze nitric oxide, a Griess reagent was prepared by mixing equal amounts of component A and component B. Then, 250 μl of the sample (culture medium) and 50 μl of the Griess reagent were added to a plate and mixed thoroughly. Next, to prepare a sodium nitrite solution, a nitrite standard solution was diluted with distilled water to a concentration between […] (reference sample). Under light-blocked conditions, a mixture of the sample and the Griess reagent was incubated at room temperature for 30 minutes. Thereafter, the absorbance (OD) of the nitrite-containing sample with respect to the reference sample was measured at 548 nm.
In this experiment, it was confirmed whether the level of nitric oxide decreased by oxLDL was recovered by the plant extracts. At this time, as a result of the experiment, the amount of nitric oxide was quantified. Nitric oxide plays a role in dilating blood vessels.
(In general: The Griess reaction detects nitrite, a stable product of nitric oxide.)

Several values for one entry are separate records, joined by “and”; a condition that tells them apart may be missing. Identical values can stand only once.

On to `CC(C)c1c(C(=O)Nc2ccccc2)c(-c2ccccc2)c(-c2ccc(F)cc2)n1CC[C@@H](O)C[C@@H](O)CC(=O)O` [Atorvastatin], for which the activity at 0.0704 µM in the assay on HepG2 cells (Homo sapiens, HepG2, positive control, 70.4 nM, read-out: Lipid-cholesterol synthesis (% of control)) was determined as 50%. Besides, half-maximal inhibition with HepG2 cells (Homo sapiens) (IC50) required 70.4 nM. Moreover, the Lipid-cholesterol synthesis is listed as 50.00 % of control with HepG2 cells (positive control, 70.4 nM) and 50.00 % of control in the assay with HepG2 cells (positive control, Atorvastatin 70.4 nM). Besides, the “Lipid-cholesterol synthesis (% of control)” value in the assay on HepG2 cells (positive control, 70.4 nM) is given as 50.00 (Atorvastatin % of control; with HepG2 cells (positive control, 70.4 nM, 0.0704 µM), 50.00 (Atorvastatin % of control.
As to `C[C@@H]1C[C@H]2[C@@H]3CCC4=CC(=O)C=C[C@]4(C)[C@@]3(F)[C@@H](O)C[C@]2(C)[C@@]1(O)C(=O)CO` [Dexamethasone], the activity at 1 µM in the assay with U266 cells (Homo sapiens, U-266, positive control, 1 uM, read-out: Anti-allergy-IgE secretion (% of control)) came to 67.3%. For the same molecule, the inhibition at 1 µM in the assay with U266 cells (Homo sapiens, U-266, positive control, 1 μM, read-out: inhibitory effect on IgE secretion) stood at 32%. Also, in the assay on U266 cells (positive control, 1 uM), the Anti-allergy-IgE secretion was 67.27 % of control and the “Anti-allergy-IgE secretion (% of control)” value is 67.27 (Dexamethasone % of control. In the assay with U266 cells (positive control, Dexamethasone 1 uM), the Anti-allergy-IgE secretion is given as 67.27 % of control.
On to `CC(C)NCC(O)c1ccc(O)c(O)c1` (centres unmarked) [Isoproterenol], for which, in the assay with 3T3-L1 fibroblasts (Mus musculus, 3T3-L1, 10 μM, read-out: Anti-obesity-Glycerol Conc. (% of control)), the activity at 10 µM was found to be 872%. Besides, the “Anti-obesity-Glycerol Conc.” value in the assay with 3T3-L1 fibroblasts (10 pM), in the assay on 3T3-L1 fibroblasts (10 μM) and in the assay with 3T3-L1 fibroblasts (Isoproterenol 10 μM) was 872.36 % of control in each case. Also, the “Anti-obesity-Glycerol Conc. (% of control)” value in the assay on 3T3-L1 fibroblasts (10 μM) was 872.36 (Isoproterenol % of control.
For `CN(C)C(=N)N=C(N)N` [Metformin], in the assay on C2C12 cells (Mus musculus, C2C12, 1 mM, read-out: Blood glucose-Glucose absorption (% of control)), the activity at 1000 µM came out at 184%. Besides, in the assay with C2C12 cells (1 mM), the “Blood glucose-Glucose absorption” value was 183.77 % of control, the “Blood glucose-Glucose absorption (% of control)” value is 183.77 (Metformin % of control and the “increase effect on glucose uptake” value worked out at 180%. Also, the “Blood glucose-Glucose absorption” value in the assay on C2C12 cells (Metformin 1 mM) was 183.77 % of control.
Take `CC(C)c1nc(N(C)S(C)(=O)=O)nc(-c2ccc(F)cc2)c1/C=C/[C@@H](O)C[C@@H](O)CC(=O)O` [Rosuvastatin]: in the assay on HUVEC cells (0.1 μM), the “recovery of nitric oxide reduced by oxLDL” value was found to be 100%. Moreover, in the assay on HUVEC cells (0.05 ppm), the “Blood circulation-NO Conc.” value is recorded as 98.29 % of control; the “Blood circulation-NO Conc. (% of control)” value was 98.29 % of control and 98.29 (Rosuvastatin % of control. Also, in the assay with HUVEC cells (Rosuvastatin 0.05 ppm), the “Blood circulation-NO Conc.” value was 98.29 % of control and the “Blood circulation-NO Conc. (% of control)” value is on record as 98.29 % of control.
With `C[C@]12CCC(=O)C=C1CC[C@@H]1[C@@H]2[C@@H](O)C[C@@]2(C)[C@H]1CC[C@]2(O)C(=O)CO` [hydrocortisone], in the assay with U266 cells (Homo sapiens, U-266, 0.1 μM, read-out: inhibitory effect on IgE secretion), the inhibition at 0.1 µM was determined as 35%.
With `CCCCCCCCCCC[C@@H](C[C@@H]1OC(=O)[C@H]1CCCCCC)OC(=O)[C@H](CC(C)C)NC=O` [orlistat], the “increase of glycerol compared to the negative control group” value with 3T3-L1 fibroblasts (0.5 ppm) is reported as 160%.
On to `CCC(C)(C)C(=O)O[C@H]1C[C@@H](C)C=C2C=C[C@H](C)[C@H](CC[C@@H]3C[C@@H](O)CC(=O)O3)[C@H]21` [simvastatin], for which, in the assay on HepG2 cells (Homo sapiens), half-maximal inhibition (IC50) was put at 31.8 nM.

(Values after patent US20230125075A1, “Composition Containing Paper Mulberry Extracts” (LG Household & Health Care Ltd., priority 2020, published 2023).)
